Data on seven compounds can be found in paper PMC12517401, “Design, synthesis, and antiproliferative activity of new 2-amino-pyrano[3,2-c]quinoline-3-carbonitriles as potential EGFR, BRAF^V600E, and HER-2 inhibitors” (RSC Advances, 2025).

Like-named read-outs stand apart in the source and are kept apart here.

Series [1] concerns colon cancer (HT-29). Briefly: Antiproliferative assay, HT-29. It is filed as cell-based. To be noted: Homo sapiens; HT-29 colon cancer cell line; read-out: Antiproliferative activity IC50 ± SEM (nM) HT-29. The protocol: (§1) 4.2.2. Assay for antiproliferative effect
(§2) To explore the antiproliferative potential of compounds propidium iodide fluorescence assay was performed using different cell lines such as Panc-1 (pancreas cancer cell line), MCF-7 (breast cancer cell line), HT-29 (colon cancer cell line) and A-549 (epithelial cancer cell line), respectively. To calculate the total nuclear DNA, a fluorescent dye (propidium iodide, PI) is used which can attach to the DNA, thus offering a quick and precise technique. PI cannot pass through the cell membrane and its signal intensity can be considered as directly proportional to quantity of cellular DNA. Cells whose cell membranes are damaged or have changed permeability are counted as dead ones. The assay was performed by seeding the cells of different cell lines at a density of 3000-7500 cells/well (in 200μl medium) in culture plates followed by incubation for 24h at 37 °C in humidified 5%CO2/95% air atmospheric conditions. The medium was removed; the compounds were added to the plates at 10 μM concentrations (in 0.1% DMSO) in triplicates, followed by incubation for 48h. DMSO (0.1%) was used as control. After incubation, medium was removed followed by the addition of PI (25 μl, 50μg/mL in water/medium) to each well of the plates. At -80 °C, the plates were allowed to freeze for 24 h, followed by thawing at 25 °C. A fluorometer (Polar-Star BMG Tech) was used to record the readings at excitation and emission wavelengths of 530 and 620 nm for each well. The percentage cytotoxicity of compounds was calculated using the following formula:
(§3) Where ATC= Absorbance of treated cells and AC= Absorbance of control. Erlotinib was used as positive control in the assay. […]

Series [2] addresses BRAF^V600E (Mus musculus, UniProt P28028, V585E). Briefly: BRAF^V600E inhibitory assay.
Series [3] addresses T1, HER-2 (Homo sapiens, UniProt P04626).
T1 construct: purchased Abcam ab60866
In words: HER-2 inhibitory assay (ADP-Glo kinase assay). To be noted: read-out: HER-2 inhibition IC50 ± SEM. It is filed as biochemical. The protocol: The results are presented as IC50 values. Lapatinib served as the reference medication. Appendix A describes more experimental details.
Lapatinib functioned as the reference drug. […]
4.2.5. HER-2 inhibitory assay
The ADP-Glo™ Kinase Assay was used for kinase activity detection, related kinases information:
HER-2 (ab60866, Abcam), with a concentration of 100 ng/mL. Target compounds were dissolved in DMSO to obtain drug solutions with different concentrations, and the compound concentrations in the final reaction system (100 μL) were 1 nM, 20 nM, 40 nM, 80 nM, and 100 nM, respectively. 10μL of the solution containing compounds was transferred to a 96-well plate, then added 40 μL of 1 × kinase buffer (50 mM HEPES, pH 7.5) to each well, and mixed the mixture in the 96-well plate on a shaker for 10 min. Next, added 25 μL of ADP-Glo™ reagent to the above wells, mixed and incubated for another 40 min. Distributed 10 μL kinase detection reagent to the reaction and incubated for 30 min. Finally, the full-wavelength microplate reader was used to record the OD value.
4.3. Statistical analysis
Computerized Prism 5 program was used to statistically analyzed data using one-way ANOVA test followed by Tukey’s as post ANOVA for multiple comparison at P ≤.05. Data were presented as […]

The test system of series [4] is pancreatic cancer (Panc-1). Briefly: Antiproliferative assay, Panc-1. The settings on record: Homo sapiens; Panc-1 pancreatic cancer cell line; read-out: Antiproliferative activity IC50 ± SEM (nM) Panc-1. It is filed as cell-based. On the procedure:
as §1, §2, §3

Series [5] is described as follows: Cell viability assay (MTT) on MCF-10A normal cell line. The class given is cell-based. To be noted: human, MCF-10A mammary gland epithelial normal cells, MCF-10A cells, 50 μM of each compound, four days of incubation. On the procedure: The human mammary gland epithelial (MCF-10A) normal cell line was used to examine the viability effects of new derivatives 5a–l using the MTT test.[33,34] Refer to Appendix A for more details.
The human mammary gland epithelium (MCF-10A) normal cell line was employed to evaluate the viability effects of novel derivatives 5a–l. The cell viability of 5a–l was assessed via the MTT assay following four days of incubation with 50 μM of each compound on MCF-10A cells.[33,34] […]
4.2. Biological evaluation
4.2.1 Cell Viability assay (MTT assay)
MTT assay was performed to investigate the effect of the synthesized compounds on mammary epithelial cells (MCF-10A). The cells were propagated in medium consisting of Ham's F-12 medium/ Dulbecco's modified Eagle's medium (DMEM) (1:1) supplemented with 10% foetal calf serum, 2 mM glutamine, insulin (10 μg/mL), hydrocortisone (500 ng/mL) and epidermal growth factor (20 ng/mL). Trypsin ethylenediamine tetra acetic acid (EDTA) was used to passage the cells after every 2-3 days. 96-well flat-bottomed cell culture plates were used to seed the cells at a density of 10^4 cells mL-1. The medium was aspirated from all the wells of culture plates after 24 h followed by the addition of synthesized compounds (in 200 μL medium to yield a final concentration of 0.1% (v/v) dimethyl sulfoxide) into individual wells of the plates. Four wells were designated to a single compound. The plates were allowed to incubate at 37°C for 96 h. Afterwards, the medium was aspirated and 3-[4,5-dimethylthiazol-2-yl]-2,5-diphenyltetrazolium bromide (MTT) (0.4 mg/mL) in medium was added to each well and subsequently incubated for 3 h. The medium was aspirated and 150 μL dimethyl sulfoxide (DMSO) was added to each well. The plates were vortexed followed by the measurement of absorbance at 540 nm on a microplate reader. The results were presented as inhibition (%) of proliferation in contrast to controls comprising 0.1% DMSO. […]

Series [6] relates to lung cancer (A-549). Briefly: Antiproliferative assay, A-549. The class given is cell-based. To be noted: Homo sapiens, A549; A-549 lung cancer cell line; read-out: Antiproliferative activity IC50 ± SEM (nM) A-549. On the procedure:
as §1, §2, §3
(1 picture or pasted object on this page, not shown here)

For series [7], the system named is breast cancer (MCF-7). In words: Antiproliferative assay, MCF-7. It is filed as cell-based, human. To be noted: for IC50: Homo sapiens, MCF7, MCF-7 breast cancer cell line, read-out: Antiproliferative activity IC50 ± SEM (nM) MCF-7. The protocol: as §1, §2, §3
The test system of series [8] is four human cancer cell lines (A-549, MCF-7, Panc-1, HT-29). In words: Antiproliferative assay, average over four cancer cell lines (GI50). It is filed as cell-based. The settings on record: for GI50: GI50 = mean IC50 against the four cancer cell lines; for Times more effective than erlotinib (GI50): ratio of GI50 versus erlotinib, four cancer cell lines. The protocol:
as §1
To explore the antiproliferative potential of compounds propidium iodide fluorescence assay was performed using different cell lines such as Panc-1 (pancreas cancer cell line), MCF-7 (breast cancer […]
calculate the total nuclear DNA, a fluorescent dye (propidium iodide, PI) is used which can attach to the DNA, thus offering a quick and precise technique. PI cannot pass through the cell membrane and its signal intensity can be considered as directly proportional to quantity of cellular DNA. Cells whose cell membranes are damaged or have changed permeability are counted as dead ones. The assay was performed by seeding the cells of different cell lines at a density of 3000-7500 cells/well (in 200μl […]
atmospheric conditions. The medium was removed; the compounds were added to the plates at 10 μM concentrations (in 0.1% DMSO) in triplicates, followed by incubation for 48h. DMSO (0.1%) was used as control. After incubation, medium was removed followed by the addition of PI (25 μl, 50μg/mL in water/medium) to each well of the plates. At -80 °C, the plates were allowed to freeze for 24 h, followed by thawing at 25 °C. A fluorometer (Polar-Star BMG Tech) was used to record the readings at excitation and emission wavelengths of 530 and 620 nm for each well. The percentage cytotoxicity of compounds was calculated using the following formula:
Where ATC= Absorbance of treated cells and AC= Absorbance of control. […]
positive control in the assay. […]

Series [9] deals with T2, EGFR (Homo sapiens, UniProt P00533). In words: EGFR-TK inhibitory assay.
Series [10] has as its system BRAF^V600E. Briefly: BRAF^V600E inhibitory assay. The settings on record: ratio of BRAF^V600E IC50 versus erlotinib.
In series [11] the target is T2, EGFR. Further details: 645–1186; His6 (N); made in house; host or cells: Sf-9 insect cells (baculovirus; pBlueBacHis2B / pFASTBacHTc); method as in doi:10.1016/j.molstruc.2023.136953. The settings on record: earlier study of the authors; cited from earlier work.
Series [12] concerns four human cancer cell lines. Further details: method as in doi:10.1016/j.molstruc.2023.136953. To be noted: earlier study of the authors; read-out: GI50 against the four cancer cell lines; cited from earlier work.
The target in series [13] is T1, HER-2. Further details: method as in PMID 39434991. The settings on record: earlier study of the authors; read-out: HER-2 inhibitory IC50; cited from earlier work.
The target of series [14] is T2, EGFR. On the set-up: 645–1186; His6 (N); made in house; host or cells: Sf-9 insect cells (baculovirus; pBlueBacHis2B / pFASTBacHTc); method as in PMID 39434991. The settings on record: earlier study of the authors; read-out: EGFR inhibitory IC50; cited from earlier work.
Series [15] relates to BRAF^V600E. Further details: method as in doi:10.1016/j.molstruc.2023.136953. The settings on record: earlier study of the authors; cited from earlier work.
The test system of series [16] is BRAF^V600E. Further details: method as in PMID 33279248. To be noted: earlier study of the authors; cited from earlier work.

T1 sequence (P04626 23-1255): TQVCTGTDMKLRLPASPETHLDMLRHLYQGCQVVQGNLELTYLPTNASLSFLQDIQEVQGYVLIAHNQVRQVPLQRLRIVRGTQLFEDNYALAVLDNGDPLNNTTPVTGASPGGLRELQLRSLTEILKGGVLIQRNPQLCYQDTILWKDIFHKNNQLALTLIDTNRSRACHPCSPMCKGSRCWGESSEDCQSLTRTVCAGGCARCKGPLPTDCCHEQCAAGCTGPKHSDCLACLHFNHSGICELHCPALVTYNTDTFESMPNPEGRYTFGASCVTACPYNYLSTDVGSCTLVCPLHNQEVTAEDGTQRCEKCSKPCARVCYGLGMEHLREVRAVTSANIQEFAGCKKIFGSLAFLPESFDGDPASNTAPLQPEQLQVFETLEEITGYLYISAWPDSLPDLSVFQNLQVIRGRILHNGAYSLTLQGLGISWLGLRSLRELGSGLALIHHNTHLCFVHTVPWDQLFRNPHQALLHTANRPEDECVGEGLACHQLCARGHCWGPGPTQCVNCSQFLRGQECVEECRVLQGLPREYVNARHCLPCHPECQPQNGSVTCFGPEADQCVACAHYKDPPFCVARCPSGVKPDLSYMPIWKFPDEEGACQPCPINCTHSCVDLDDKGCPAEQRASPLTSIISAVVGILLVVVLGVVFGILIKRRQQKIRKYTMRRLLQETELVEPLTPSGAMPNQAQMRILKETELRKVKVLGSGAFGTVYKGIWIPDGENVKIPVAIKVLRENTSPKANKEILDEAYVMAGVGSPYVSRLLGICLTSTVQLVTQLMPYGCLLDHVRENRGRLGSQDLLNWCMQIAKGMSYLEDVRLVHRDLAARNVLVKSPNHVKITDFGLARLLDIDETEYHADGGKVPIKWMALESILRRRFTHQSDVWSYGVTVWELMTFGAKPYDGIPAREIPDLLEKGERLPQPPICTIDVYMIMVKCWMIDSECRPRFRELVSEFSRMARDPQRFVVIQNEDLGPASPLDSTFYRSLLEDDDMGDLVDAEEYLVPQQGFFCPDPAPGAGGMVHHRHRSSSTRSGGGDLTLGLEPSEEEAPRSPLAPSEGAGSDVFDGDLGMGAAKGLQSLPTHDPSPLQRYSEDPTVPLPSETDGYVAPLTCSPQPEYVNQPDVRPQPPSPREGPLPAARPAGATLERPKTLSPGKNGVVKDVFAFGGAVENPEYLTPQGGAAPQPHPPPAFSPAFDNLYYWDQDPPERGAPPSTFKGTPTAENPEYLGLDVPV
T2 sequence (P00533 669-1210): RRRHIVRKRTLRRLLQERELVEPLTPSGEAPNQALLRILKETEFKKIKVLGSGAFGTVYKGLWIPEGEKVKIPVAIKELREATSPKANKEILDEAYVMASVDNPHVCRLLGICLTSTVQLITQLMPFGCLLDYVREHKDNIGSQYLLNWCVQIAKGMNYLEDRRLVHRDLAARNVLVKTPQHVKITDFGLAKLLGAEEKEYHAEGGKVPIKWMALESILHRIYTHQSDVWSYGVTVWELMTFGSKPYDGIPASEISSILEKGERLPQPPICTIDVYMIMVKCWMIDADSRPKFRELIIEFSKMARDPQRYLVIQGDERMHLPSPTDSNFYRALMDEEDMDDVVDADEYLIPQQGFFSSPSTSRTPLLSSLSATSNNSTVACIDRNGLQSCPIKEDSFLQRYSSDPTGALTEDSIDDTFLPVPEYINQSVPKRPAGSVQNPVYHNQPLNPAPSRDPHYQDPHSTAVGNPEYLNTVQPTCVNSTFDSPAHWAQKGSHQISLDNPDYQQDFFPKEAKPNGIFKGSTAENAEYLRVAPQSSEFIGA
Chain of BRAF^V600E (Mus musculus, UniProt P28028, V585E) (P28028 whole entry V585E): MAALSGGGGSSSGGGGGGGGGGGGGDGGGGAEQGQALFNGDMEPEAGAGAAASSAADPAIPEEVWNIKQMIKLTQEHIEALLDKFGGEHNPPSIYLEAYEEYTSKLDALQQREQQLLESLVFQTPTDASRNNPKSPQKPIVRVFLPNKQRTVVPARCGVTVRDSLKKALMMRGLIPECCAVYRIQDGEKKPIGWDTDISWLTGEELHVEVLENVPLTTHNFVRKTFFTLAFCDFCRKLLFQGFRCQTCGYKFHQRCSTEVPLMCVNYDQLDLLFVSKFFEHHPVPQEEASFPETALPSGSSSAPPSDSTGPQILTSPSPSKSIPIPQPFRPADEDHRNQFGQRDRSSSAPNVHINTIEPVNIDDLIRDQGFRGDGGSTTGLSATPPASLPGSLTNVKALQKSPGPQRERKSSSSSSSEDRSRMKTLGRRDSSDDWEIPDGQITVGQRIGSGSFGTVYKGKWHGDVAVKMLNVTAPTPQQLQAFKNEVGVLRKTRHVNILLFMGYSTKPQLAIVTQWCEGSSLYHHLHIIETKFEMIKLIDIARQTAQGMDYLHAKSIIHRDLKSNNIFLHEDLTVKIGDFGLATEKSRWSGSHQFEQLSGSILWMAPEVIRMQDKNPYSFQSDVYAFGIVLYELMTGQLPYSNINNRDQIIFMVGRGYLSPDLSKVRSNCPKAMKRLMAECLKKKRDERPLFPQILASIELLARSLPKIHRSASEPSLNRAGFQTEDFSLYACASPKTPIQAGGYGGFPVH
Chain of BRAF^V600E (P28028 whole entry V585E): as above

As for `Cn1c(=O)c2c(c3ccccc31)OC(N)=C(C#N)C2c1ccccc1` (stereo not drawn) [Compound 5e, 2-Amino-6-methyl-5-oxo-4-phenyl-5,6-dihydro-4H-pyrano[3,2-c]quinoline-3-carbonitrile], the IC50 was determined as 27 ± 2 nM in series [1]; 62 ± 3 nM in [2]; 21 ± 1 nM in series [3]; 28 ± 2 nM in series [4]; 26 ± 2 nM in [6]; 24 ± 2 nM in series [7]. The compound further yielded an IC50 in [9] of 71 ± 4 nM. In series [5], this compound displayed a viability at 4 days, 50 µM of 90%. Also, in series [7] (ratio of IC50 versus erlotinib, MCF-7), the “Potency fold greater than erlotinib, MCF-7” value was 1.7 fold. In addition, the GI50 in [8] (Homo sapiens) is 26 nM. The “Times more effective than erlotinib (GI50)” value in [8] stood at 1.3 fold. The “Fold more potency than erlotinib, EGFR” value in series [9] (ratio of EGFR IC50 versus erlotinib) was 1.2 fold.

For `COc1ccc(C2C(C#N)=C(N)Oc3c2c(=O)[nH]c2ccc(OC)cc32)cc1` (stereo not drawn) [Compound 5h, 2-Amino-9-methoxyl-4-(4-methoxylphenyl)-5-oxo-5,6-dihydro-4H-pyrano[3,2-c]quinoline-3-carbonitrile], the IC50 turned out to be 29 ± 2 nM in series [1]; 67 ± 3 nM in series [2]; 23 ± 1 nM in [3]; 29 ± 2 nM in series [4]; 28 ± 2 nM in [6]; 26 ± 2 nM in series [7]. The compound further registered an IC50 in [9] of 75 ± 4 nM. Also, the “Fold reduced potency compared to erlotinib, BRAF^V600E” value in series [10] amounted to 1.1 fold. Besides, the viability at 4 days, 50 µM in [5] was 91%. Moreover, the GI50 in [8] was 28 nM; in series [8] (Homo sapiens), 26 nM. In addition, in [8], the “Times more effective than erlotinib (GI50)” value is reported as 1.25 fold.

For the compound `COc1ccc(C2C(C#N)=C(N)Oc3c2c(=O)n(C)c2ccccc32)cc1` (stereo not drawn) [Compound 5i, 2-Amino-6-methyl-4-(4-methoxylphenyl)-5-oxo-5,6-dihydro-4H-pyrano[3,2-c]quinoline-3-carbonitrile], the IC50 stood at 33 ± 2 nM in series [1]; 74 ± 4 nM in series [2]; 31 ± 2 nM in [3]; 31 ± 2 nM in series [4]; 30 ± 2 nM in [6]; 27 ± 2 nM in [7]. Also, the IC50 in series [9] is 78 ± 4 nM. Besides, the “Fold reduced potency compared to erlotinib, BRAF^V600E” value in series [10] was 1.3 fold. In [5], the viability at 4 days, 50 µM was 90%. This compound also yielded a GI50 in series [8] (Homo sapiens) of 30 nM.

On to `CC(=NO)c1ccc(NC(=O)c2cc(-c3ccc(S(C)(=O)=O)cc3)nc3ccccc23)cc1` [Compound II], for which, in [11], the IC50 is 105 ± 10 nM. Besides, the GI50 in [12] is 1200 nM.

Turning to `O=c1[nH]c2ccccc2c(O)c1/C=N/c1ccc(NS(=O)(=O)c2ncccn2)cc1` [Compound I], the results for the IC50 in series [13] and in series [14] were 31 nM and 71 nM, respectively.

With `C#Cc1cccc(Nc2ncnc3cc(OCCOC)c(OCCOC)cc23)c1` [Erlotinib, reference compound], the IC50 in series [15] is […]; in [1] it was 30 ± 3 nM; in series [4] it was 30 ± 3 nM; in series [6] it was 30 ± 3 nM; in series [7] it was 40 ± 3 nM; in series [16] it was […].

As to `COc1cccc2c1C(=O)c1c(O)c3c(c(O)c1C2=O)C[C@@](O)(C(=O)CO)C[C@@H]3O[C@H]1C[C@H](N)[C@H](O)[C@H](C)O1` [doxorubicin], the GI50 in series [12] is 1400 nM.
